Measurements as given in patent US20100022562A1, “Use of Plant Growth Regulators to Reduce Abscisic Acid Related Plant Leaf Yellowing” (priority 2008, published 2010).

Columns and labels:
Pansy plants [1] = experiment: Pansy yellow leaf number (leaf yellowing); assay type: in vivo
Experimental: (§1) All studies were conducted in the greenhouse at the research farm of Valent BioSciences Corporation (Long Grove, Ill.). Pansy plants were obtained either from local retailers as mature plants, or plugs from wholesale nurseries. Plugs of Pansy plants were transplanted into an 18-cell flat filled with Promix BX (available from Premier Horticulture Inc. Quakertown, Pa.) and grown for about 30 days prior to treatment. During growing periods, plants received daily irrigation and weekly fertilizer (1 g/L all purpose fertilizer 20-20-20, The Scotts Company, Marysville, Ohio).
(§2) Uniform plants were selected for the study. Prior to chemical treatment, plants were saturated with water and then drained for about two hours. A total of 20 mL chemical solution, which is equivalent to about 10% of the cell volume, was applied to each plant with 3 mL solution foliar applied to canopy and 17 mL solution drench applied to root zone. Unless specified, watering of plants was stopped after chemical treatment.
After chemical treatment, plants were arranged in a randomized complete block experimental design. The plants were rated daily for the extent of wilting on a scale from 1 (no wilting) to 4 (complete wilting) to generated a sales index rating. A rating of 2.5 was the point at which a plant was determined to be unmarketable and the previous day was recorded as the shelf life of that plant in days. […] Leaf transpiration rate was measured after treatment using a LI-1600 Steady State Porometer (LI-Cor, Lincoln, Nebr.). The transpiration rate of each treatment was calculated as the percentage of that of control at each day to reduce day-to-day variation caused by changes of environmental condition such as light intensity, humidity, and temperature.

Pansy plants [2] = experiment: Pansy shelf life under drought (daily wilting rating, sales index); assay type: in vivo
Experimental: as §1, §2
After chemical treatment, plants were arranged in a randomized complete block experimental design. The plants were rated daily for the extent of wilting on a scale from 1 (no wilting) to 4 (complete wilting) to generated a sales index rating. A rating of 2.5 was the point at which a plant was determined to be unmarketable and the previous day was recorded as the shelf life of that plant in days. Yellow leaf number was counted at 3 days after chemical treatment. Leaf transpiration rate was measured after treatment using a LI-1600 Steady State Porometer (LI-Cor, Lincoln, Nebr.). The transpiration rate of each treatment was calculated as the percentage of that of control at each day to reduce day-to-day variation caused by changes of environmental condition such as light intensity, humidity, and temperature.

[3] = 0.3 mg, Matrix Orange, drought, 3 d after treatment, Table 2
[4] = 3 mg, Matrix Orange, drought, 3 d after treatment, Table 2
[5] = 0.3 mg, Matrix Orange, drought, Table 2
[6] = 3 mg, Matrix Orange, drought, Table 2

`C#CC1(C)CC(=O)C=C(C)C1(O)C=CC(C)=CC(=O)O` (centres unmarked) [PBI-524, 8′ acetylene-ABA, acid] gave a Yellow leaf number (Pansy plants [1]; [3]) of 11.0, a Yellow leaf number (Pansy plants [1]; [4]) of 11.2 and a Shelf life (Pansy plants [2]; [5]) of 6.5 days. The Shelf life (Pansy plants [2]; [6]) was 8.8 days.

Compound `COC(=O)C=C(C)C=CC1(O)c2ccccc2C(=O)CC1(C)C` (mixture of isomers) [PBI-488, tetralone, ester] has a Yellow leaf number (Pansy plants [1]; [3]) of 9.2, a Yellow leaf number (Pansy plants [1]; [4]) of 11.5 and a Shelf life (Pansy plants [2]; [5]) of 5.3 days. For the same compound, the Shelf life (Pansy plants [2]; [6]) was 7.0 days.

`COC(=O)C=C(C)C=CC1(O)C(C)=CC(=O)CC1(C)C1CC1` (centres unmarked) [PBI-696, 8′ cyclopropane ester] showed a Yellow leaf number (Pansy plants [1]; [3]) of 9.0, a Shelf life (Pansy plants [2]; [5]) of 5.3 days and a Shelf life (Pansy plants [2]; [6]) of 7.8 days.

With `O=C(Nc1ccccc1)Nc1ccnc(Cl)c1` [CPPU, N1-(2-chloro-4-pyridyl)-N3-phenylurea] the Yellow leaf number (Pansy plants [1]; 0.02 mg CPPU, Matrix Yellow, 3 d after treatment, Table 6) was 7.7, the Yellow leaf number (Pansy plants [1]; 0.2 mg CPPU, Matrix Yellow, 3 d after treatment, Table 6) was 5.7 and the Shelf life (Pansy plants [2]; 0.02 mg CPPU, Matrix Yellow, Table 6) was 3.2 days. It also gave a Shelf life (Pansy plants [2]; 0.2 mg CPPU, Matrix Yellow, Table 6) of 2.8 days.

Work on `CCOC(=O)C1CC(=O)C(=C(O)C2CC2)C(=O)C1` (centres unmarked) [TE, trinexapac-ethyl] yielded a Yellow leaf number (Pansy plants [1]; 30 mg, Matrix Yellow, drought, 3 d after treatment, Table 10) of 8.7 and a Shelf life (Pansy plants [2]; 30 mg, Matrix Yellow, drought, Table 10) of 2.5 days.

Work on `C/C(C#C[C@]1(O)C(C)CC(=O)CC1(C)C)=C/CO` (some centres unmarked) [PBI-51] yielded a Yellow leaf number (Pansy plants [1]; 3 mg, Delta Premium Pure Golden Yellow, advanced seedling stage (1 month old), drought, 3 d after treatment, Table 4) of 8.2, a Yellow leaf number (Pansy plants [1]; 3 mg, Delta Premium Pure Golden Yellow, drought, 3 d after treatment, Table 3) of 7.5 and a Yellow leaf number (Pansy plants [1]; 30 mg, Delta Premium Pure Golden Yellow, advanced seedling stage (1 month old), drought, 3 d after treatment, Table 4) of 8.8. The Yellow leaf number (Pansy plants [1]; 30 mg, Delta Premium Pure Golden Yellow, drought, 3 d after treatment, Table 3) was 8.0, the Shelf life (Pansy plants [2]; 3 mg, Delta Premium Pure Golden Yellow, advanced seedling stage (1 month old), drought, Table 4) was 3.7 days and the Shelf life (Pansy plants [2]; 3 mg, Delta Premium Pure Golden Yellow, drought, Table 3) was 5.0 days. The Shelf life (Pansy plants [2]; 30 mg, Delta Premium Pure Golden Yellow, advanced seedling stage (1 month old), drought, Table 4) was 3.5 days and the Shelf life (Pansy plants [2]; 30 mg, Delta Premium Pure Golden Yellow, drought, Table 3) was 5.0 days.

Compound `CC1=CC1` [MCP, 1-methylcyclopropene] has a Yellow leaf number (Pansy plants [1]; 10 μL L^−1 MCP (12 hours) at 0 hrs, Delta Premium Pure White, 3 days after treatment, Table 22) of 1.8, a Yellow leaf number (Pansy plants [1]; 10 μL L^−1 MCP (12 hours) at 0 hrs, Delta Premium Pure White, 7 days after treatment, Table 22) of 4.0 and a Yellow leaf number (Pansy plants [1]; 10 μL L^−1 MCP (12 hours) at +24 hrs, Delta Premium Pure White, 3 days after treatment, Table 22) of 2.2. For the same compound, the Yellow leaf number (Pansy plants [1]; 10 μL L^−1 MCP (12 hours) at +24 hrs, Delta Premium Pure White, 7 days after treatment, Table 22) was 4.0, the Yellow leaf number (Pansy plants [1]; 10 μL L^−1 MCP (12 hours) at −24 hrs, Delta Premium Pure White, 3 days after treatment, Table 22) was 2.0 and the Yellow leaf number (Pansy plants [1]; 10 μL L^−1 MCP (12 hours) at −24 hrs, Delta Premium Pure White, 7 days after treatment, Table 22) was 4.0. It also gave a Yellow leaf number (Pansy plants [1]; 10 μL L^−1 MCP for 12 hours, Colossus Formula Mix, 3 days after treatment, Table 20) of 0.2, a Yellow leaf number (Pansy plants [1]; 10 μL L^−1 MCP for 12 hours, Colossus Formula Mix, 8 days after treatment, Table 20) of 1.7 and a Yellow leaf number (Pansy plants [1]; 10 μL L^−1 MCP for 24 hours, Delta Premium Pure White, 3 days after treatment, Table 21) of 0.0. The Yellow leaf number (Pansy plants [1]; 10 μL L^−1 MCP for 24 hours, Delta Premium Pure White, 8 days after treatment, Table 21) was 0.7, the Yellow leaf number (Pansy plants [1]; 10 μL L^−1 MCP, Delta Premium Pure White, 3 days after treatment, Table 23) was 3.2 and the Yellow leaf number (Pansy plants [1]; 10 μL L^−1 MCP, Delta Premium Pure White, 7 days after treatment, Table 23) was 6.7. For the same compound, the Shelf life (Pansy plants [2]; 10 μL L^−1 MCP (12 hours) at 0 hrs, Delta Premium Pure White, Table 22) was 4.0 days, the Shelf life (Pansy plants [2]; 10 μL L^−1 MCP (12 hours) at +24 hrs, Delta Premium Pure White, Table 22) was 4.0 days and the Shelf life (Pansy plants [2]; 10 μL L^−1 MCP (12 hours) at −24 hrs, Delta Premium Pure White, Table 22) was 4.0 days. The Shelf life (Pansy plants [2]; 10 μL L^−1 MCP for 12 hours, Colossus Formula Mix, no water, Table 20) was 4.2 days, the Shelf life (Pansy plants [2]; 10 μL L^−1 MCP for 24 hours, Delta Premium Pure White, Table 21) was 7.0 days and the Shelf life (Pansy plants [2]; 10 μL L^−1 MCP, Delta Premium Pure White, Table 23) was 4.5 days.

Work on `COC(=O)C=C(C)C#CC1(O)c2ccccc2C(=O)CC1(C)C` (mixture of isomers) [PBI-702, tetralone, first carbon tail acetylene, ester] yielded a Yellow leaf number (Pansy plants [1]; [3]) of 10.8, a Yellow leaf number (Pansy plants [1]; [4]) of 11.0 and a Shelf life (Pansy plants [2]; [5]) of 4.7 days. It also gave a Shelf life (Pansy plants [2]; [6]) of 7.0 days.
